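Where inhibition never reached the appropriate level, the endpoint shown equals the highest concentration tested. Otherwise, values were interpolated linearly from a five-concentration, 48-hour dose response in 96-well plates. Abbreviation: GI50, concentration required for 50% inhibition of growth. TGI: concentration producing complete growth inhibition.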

Usually GI50 stands for the concentration that inhibits growth by half. By TGI is commonly meant the concentration giving total growth inhibition.

Holding throughout (test): DTP human tumour cell line panel, 48 h
The subject of test [1] is T-47D breast.
Test [2] concerns HT29 colon.
Test [3] relates to NCI-H460 lung.
Test [4] has as its system A498 renal.
The test system of test [5] is RXF 393 renal.
Test [6] relates to K-562 leukemia.
The subject of test [7] is OVCAR-5 ovarian.
For test [8], the system named is HCT-15 colon.

For `N#Cc1cccc(OCc2nc(N)nc(N)c2-c2ccc(Cl)c(Cl)c2)c1`, the GI50 in test [1] was 8.25 µM; in test [2] it was 0.797 µM; in test [3] it was 0.435 µM; in test [4] it was 2.9 µM; in test [5], 2.13 µM; in test [6], 0.384 µM. Also, the values for the GI50 in test [7] and in test [8] were 6.87 µM and 0.575 µM, respectively. Moreover, the TGI in test [1], in test [2], in test [3], in test [4], in test [5] and in test [6] was greater than 100 µM throughout. For the same compound, the TGI in test [7] and in test [8] was greater than 100 µM in each case.

For `CCCCCc1nc2c(c3c1CCCC3)CCCC2`, the GI50 was 6.2 µM in test [1]; 1.85 µM in test [2]; 12 µM in test [3]; 3.28 µM in test [4]; 13.1 µM in test [5]; 4.76 µM in test [6]. Further, the GI50 was 9.08 µM in test [7] and 8.94 µM in test [8]. Further, the TGI was 24.9 µM in test [1]; 14.8 µM in test [2]; 30.1 µM in test [3]; 19.6 µM in test [4]; 27.3 µM in test [5]; 27.9 µM in test [6]. Besides, the results for the TGI in test [7] and in test [8] were 27.4 µM and 26.8 µM, respectively.

`COc1ccc2c(c1)=C(C=C1C=CN(O)C=C1)C(=O)N=2`: the GI50 in test [1] is 6.34 µM; in test [2], 17.1 µM; in test [3], greater than 50.1 µM; in test [4], 19.7 µM; in test [5] it was 33.9 µM; in test [6], 3.55 µM. Further, the GI50 in test [7] was 12.7 µM; in test [8], 25 µM. The TGI was greater than 68.7 µM in test [1]; greater than 66.8 µM in test [2]; greater than 88.3 µM in test [3]; greater than 73.2 µM in test [4]; 98.3 µM in test [5]; greater than 100 µM in test [6]. Further, the figures for the TGI in test [7] and in test [8] were 50.8 µM and greater than 75.9 µM, respectively.

For `Oc1ccc(CN2CCC(N3CCOCC3)CC2)c2cccnc12`, the GI50 in test [1] is 35.5 µM; in test [2], 100 µM; in test [3], 46.9 µM; in test [4], greater than 100 µM; in test [5], 23 µM; in test [6], 28.1 µM. Further, the GI50 is 86.9 µM in test [7] and 36.5 µM in test [8]. Further, the TGI in test [1] was greater than 100 µM; in test [2], greater than 100 µM; in test [3], greater than 100 µM; in test [4] it was greater than 100 µM; in test [5], 95.5 µM; in test [6], greater than 100 µM. In addition, the TGI in test [7] and in test [8] was greater than 100 µM each time.

Turning to `O=c1cc(-c2ccccc2)oc2cc(O)c(O)c(O)c12`, the GI50 in test [1] is 23.7 µM; in test [2] it was 42.7 µM; in test [3] it was 7.99 µM; in test [4] it was 6.94 µM; in test [5], 78.6 µM; in test [6] it was 12.6 µM. Also, the results for the GI50 in test [7] and in test [8] were 30 µM and 8.25 µM, respectively. In addition, the TGI in test [1], in test [2], in test [3], in test [4], in test [5] and in test [6] was greater than 100 µM throughout. Also, the TGI is 88.5 µM in test [7] and 58.8 µM in test [8].

On to `Cc1cc(NCCCNc2ccnc3cc(Cl)ccc23)nc(N2CCN(C)CC2)n1`, for which the GI50 in test [1] was 6.7 µM; in test [2] it was 1.33 µM; in test [3], 2.66 µM; in test [4], 14.4 µM; in test [5], 1.35 µM; in test [6], 1.86 µM. The values for the GI50 in test [7] and in test [8] were 11.6 µM and 3.29 µM, respectively. Moreover, the TGI in test [1] was 30.9 µM; in test [2], 13.5 µM; in test [3], 10.4 µM; in test [4], 28.3 µM; in test [5], 4.99 µM; in test [6], 11.7 µM. For the same compound, the TGI came to 43.2 µM in test [7] and 22.8 µM in test [8].

In the case of `CC/C(=C(/c1ccc(OCCN(C)C)cc1)c1ccc(OC(=O)CCC(=O)c2c(C)[nH]c(/C=C3\N=C(c4ccc[nH]4)C=C3OC)c2C)cc1)c1ccccc1`, the GI50 was 1.34 µM in test [1]; 0.438 µM in test [2]; 3.48 µM in test [3]; 2.54 µM in test [4]; 2.34 µM in test [5]; 2.32 µM in test [6]. Moreover, the GI50 in test [7] is 5.75 µM; in test [8], 0.934 µM. In addition, the TGI was 7.79 µM in test [1]; 11.1 µM in test [2]; 14.1 µM in test [3]; 16.8 µM in test [4]; 12.6 µM in test [5]; 6.37 µM in test [6]. Further, the values for the TGI in test [7] and in test [8] were 21.6 µM and 4.48 µM, respectively.

Take `CCN1/C(=C/C=C/c2n(-c3ccccc3)c3ccc(-c4nc5ccccc5s4)cc3[n+]2CC)N(c2ccccc2)c2ccc(-c3nc4ccccc4s3)cc21`: the GI50 in test [1] is 0.746 µM; in test [2], 0.333 µM; in test [3] it was 0.527 µM; in test [4], 0.246 µM; in test [5], 0.563 µM; in test [6], 0.471 µM. The GI50 in test [7] is 1.53 µM; in test [8], 1 µM. Further, the total growth inhibition concentration (TGI) is greater than 50 µM in test [1]; greater than 50 µM in test [2]; greater than 50 µM in test [3]; 2.39 µM in test [4]; 7.37 µM in test [5]; greater than 50 µM in test [6]. The TGI in test [7] and in test [8] was greater than 50 µM throughout.

On to `O=C1CC(c2cccc(O)c2)C2(C(=O)NC(=S)NC2=O)C(c2cccc(O)c2)C1` (centres undefined), for which the GI50 in test [1], in test [2], in test [3], in test [4], in test [5] and in test [6] was greater than 100 µM throughout. The GI50 in test [7] and in test [8] was greater than 100 µM in each case. The TGI in test [1], in test [2], in test [3], in test [4], in test [5] and in test [6] was greater than 100 µM each time. Besides, the TGI in test [7] and in test [8] was greater than 100 µM in each case.

The values above are taken from PubChem BioAssay (NCI).
